# Test results as given in patent publication US8217035B2, “Pyrimidine derivatives used as PI-3-kinase inhibitors” (Novartis AG, priority 2006, dated 2012).
# Like-named read-outs stand apart in the source and are kept apart here.
# Key:
# [1] = biological target: PI3 kinase alpha (Homo sapiens, UniProt P42336); assay: PI3K ATP depletion assay (Biological Method 1, Assay 3; KinaseGlo luminescence); type: biochemical; conditions: ATP depletion assay, read-out: PI3 Kinase Alpha, IC50
# Outline: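 Compound in DMSO was mixed with 10 nM PI3 kinase and 5 μg/mL phosphatidylinositol, and the reaction was started with 2 μM ATP. It ran to about 50% ATP depletion and was stopped with KinaseGlo.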
# [2] = tested on: A2780 ovarian cancer cells; assay: Cellular proliferation in A2780 cells, Cell Titer Glo (Biological Method 4); type: cell-based; conditions: Homo sapiens
# Experimental: In addition, many of the compounds of Table 1 were tested to determine their inhibitory activity in a cellular proliferation assay according to Biological Method 4.
# The ability of the compounds of the invention to inhibit cellular proliferation were determined by using Cell Titer Glo, a commercially available assay from Promega Corporation. A2780 ovarian cancer cells were seeded in TC treated 96-well plates at a density of 1,000 per well in DMEM, 10% FBS, 1% Sodium Pyruvate, and 1% Penicillin Streptomycin for a minimum of 2 hrs prior to addition of compound. For each concentration of test compound, 2 μl (500×) aliquots of compound or 100% DMSO diluted in 500 μl of culture medium for 2× concentration then diluted 1× on the Cells. Cells were incubated for 72 hrs at 37° C., 5% CO2. After the 72 hour incubation, Cell Titer Glo reagent is added to determine number of viable cells remaining after exposure to the compound, and the EC50 value was calculated. The assay was performed according to the manufacturer's instruction (Promega Corporation, Madison, Wis. USA). Each experimental condition was performed in duplicate.
# [3] = ovarian cancer cell line A2780, Biological Method 4
# Chain of PI3 kinase alpha (P42336 whole entry): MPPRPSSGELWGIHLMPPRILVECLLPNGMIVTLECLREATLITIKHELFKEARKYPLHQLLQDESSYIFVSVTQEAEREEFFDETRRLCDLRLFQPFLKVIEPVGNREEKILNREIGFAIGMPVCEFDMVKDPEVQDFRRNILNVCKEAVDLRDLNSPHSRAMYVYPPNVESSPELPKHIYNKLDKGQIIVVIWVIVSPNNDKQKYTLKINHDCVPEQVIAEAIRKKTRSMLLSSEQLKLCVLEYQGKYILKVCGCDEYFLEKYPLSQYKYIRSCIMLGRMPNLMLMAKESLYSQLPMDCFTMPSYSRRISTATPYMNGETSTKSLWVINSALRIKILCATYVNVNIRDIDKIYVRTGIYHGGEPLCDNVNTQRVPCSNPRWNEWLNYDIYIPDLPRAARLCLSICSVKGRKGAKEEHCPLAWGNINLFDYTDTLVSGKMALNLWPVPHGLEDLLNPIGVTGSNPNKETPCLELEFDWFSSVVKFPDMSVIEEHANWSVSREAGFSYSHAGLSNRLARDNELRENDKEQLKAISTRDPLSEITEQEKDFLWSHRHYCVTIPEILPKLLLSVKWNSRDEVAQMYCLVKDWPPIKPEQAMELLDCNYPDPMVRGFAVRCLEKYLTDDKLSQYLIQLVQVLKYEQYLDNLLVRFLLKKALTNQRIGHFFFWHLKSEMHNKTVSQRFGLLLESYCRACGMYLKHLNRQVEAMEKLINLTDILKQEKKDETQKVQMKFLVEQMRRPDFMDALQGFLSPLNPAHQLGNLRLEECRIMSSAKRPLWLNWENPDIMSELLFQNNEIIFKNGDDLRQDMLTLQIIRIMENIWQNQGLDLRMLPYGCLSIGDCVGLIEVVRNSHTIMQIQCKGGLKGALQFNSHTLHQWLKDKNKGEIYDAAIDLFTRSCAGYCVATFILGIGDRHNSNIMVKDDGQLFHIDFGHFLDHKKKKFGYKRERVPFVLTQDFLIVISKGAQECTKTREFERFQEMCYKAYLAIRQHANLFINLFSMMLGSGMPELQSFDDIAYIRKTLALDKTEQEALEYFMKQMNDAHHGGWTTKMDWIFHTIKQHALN
# Chain of PI3 kinase alpha (P27986 whole entry partner): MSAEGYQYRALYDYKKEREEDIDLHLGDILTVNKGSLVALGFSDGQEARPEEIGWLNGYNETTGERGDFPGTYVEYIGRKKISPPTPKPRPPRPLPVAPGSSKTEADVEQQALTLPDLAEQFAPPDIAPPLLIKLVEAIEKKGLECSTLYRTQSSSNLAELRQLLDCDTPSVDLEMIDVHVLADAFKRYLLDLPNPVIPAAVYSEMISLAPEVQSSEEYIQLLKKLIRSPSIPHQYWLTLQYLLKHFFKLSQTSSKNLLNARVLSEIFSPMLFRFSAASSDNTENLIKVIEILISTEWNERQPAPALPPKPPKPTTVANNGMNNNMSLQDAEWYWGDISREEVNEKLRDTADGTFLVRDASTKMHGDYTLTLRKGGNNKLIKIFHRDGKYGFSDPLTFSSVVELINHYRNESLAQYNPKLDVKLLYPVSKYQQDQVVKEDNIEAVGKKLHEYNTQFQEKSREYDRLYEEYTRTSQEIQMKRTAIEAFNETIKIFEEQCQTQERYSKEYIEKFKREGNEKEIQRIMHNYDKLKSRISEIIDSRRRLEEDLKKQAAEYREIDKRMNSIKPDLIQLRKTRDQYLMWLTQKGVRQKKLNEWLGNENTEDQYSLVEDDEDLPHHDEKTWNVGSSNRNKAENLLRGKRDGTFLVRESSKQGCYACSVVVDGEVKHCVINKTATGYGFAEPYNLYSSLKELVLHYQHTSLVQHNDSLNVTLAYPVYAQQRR
Compound,IC50 [1] [µM],EC50 ([2]; ovarian cancer cell line A2780) [µM],IC50 ([1]; Biological Method 1) [µM],"EC50 [2, 3] [µM]"
Nc1cc(C(F)(F)F)c(-c2cc(N3CCOC(C(=O)N4CCOCC4)C3)nc(N3CCOCC3)n2)cn1 (centres unmarked) [Compound 325],,,< 1,< 25
Nc1ncc(-c2cc(-c3cnc(N)nc3)nc(N3CCOCC3)n2)cn1 [Compound 279],,,< 1,< 10
N#Cc1cc(N)ncc1-c1cc(N2CCOC(c3ccccc3)C2)nc(N2CCOCC2)n1 (centres unmarked) [Compound 341],,,< 1,< 10
Nc1ccc(-c2cc(-c3ccncc3)nc(N3CCOCC3)n2)cn1 [Compound 246],,,< 1,< 10
Nc1cc(Cl)c(-c2cc(Nc3ccncc3C(F)(F)F)nc(N3CCOCC3)n2)cn1 [Compound 219],,,< 1,< 10
Cn1cc(-c2cc(-c3ccc(N)nc3)nc(N3CCOCC3)n2)cn1 [Compound 247],,,< 1,< 10
CC(=O)Nc1cccc(-c2cc(-c3ccc(N)nc3)nc(N3CCOCC3)n2)c1 [Compound 250],,,< 1,< 10
CNC(=O)c1cc(-c2cnc(N)nc2)nc(N2CCOCC2)n1 [Compound 232],,,< 1,< 25
Nc1cc(C(F)(F)F)c(-c2cc(N3CCOC(c4ccc(Cl)cc4)C3)nc(N3CCOCC3)n2)cn1 (centres unmarked) [Compound 336],,,< 1,< 10
Nc1cc(C(F)(F)F)c(-c2cc(-c3cncc(CN4CCCCC4)c3)nc(N3CCOCC3)n2)cn1 [Compound 263],,,< 1,< 10
Nc1cc(C(F)(F)F)c(-c2cc(N3CCC(=O)CC3)nc(N3CCOCC3)n2)cn1 [Compound 324],,,< 1,< 10
CS(=O)(=O)Nc1cccc(-c2cc(-c3ccc(N)nc3)nc(N3CCOCC3)n2)c1 [Compound 249],,,< 1,< 10
Nc1ncc(-c2cc(Nc3nccc(C(F)(F)F)n3)nc(N3CCOCC3)n2)c(C(F)(F)F)n1 [Compound 216],,,< 1,< 10
CN1CCN(C(=O)c2cc(-c3cnc(N)nc3)nc(N3CCOCC3)n2)CC1 [Compound 235],,,< 1,< 10
CN(C)CCOc1ccc(Nc2cc(-c3cnc(N)cc3C(F)(F)F)nc(N3CCOCC3)n2)cn1 [Compound 269],,,< 1,< 10
Nc1ccc(-c2cc(Sc3ccncc3)nc(N3CCOCC3)n2)cn1 [Compound 294],,,< 1,< 10
Nc1cc(C(F)(F)F)c(-c2cc(Nc3ccc(OC4CCOCC4)nc3)nc(N3CCOCC3)n2)cn1 [Compound 267],,,< 1,< 10
Nc1cc(C(F)(F)F)c(-c2cc(N3CCOC(CN4CCCC4)C3)nc(N3CCOCC3)n2)cn1 (centres unmarked) [Compound 220],,,< 10,< 25
Nc1ccc(-c2cc(Nc3cc(C(F)(F)F)ccn3)nc(N3CCOCC3)n2)cn1 [Compound 350],,,< 1,< 25
Nc1cc(C(F)(F)F)c(-c2cc(NC3CCOCC3)nc(N3CCOCC3)n2)cn1 [Compound 322],,,< 1,< 25
CC(=O)N1CCC(Oc2ccc(Nc3cc(-c4cnc(N)nc4N)nc(N4CCOCC4)n3)cn2)CC1 [Compound 261],,,< 1,< 10
Nc1ncc(-c2cc(C(=O)N3CCCCC3)nc(N3CCOCC3)n2)cn1 [Compound 234],,,< 1,< 25
N#Cc1cc(N)ncc1-c1cc(-c2cnc(N)cc2C#N)nc(N2CCOCC2)n1 [Compound 317],,,< 1,< 10
COc1nc2ccccc2cc1Nc1cc(-c2ccc(N)nc2)nc(N2CCOCC2)n1 [Compound 287],,,< 1,< 10
CN(c1cc(-c2cnc(N)nc2)nc(N2CCOCC2)n1)C1CCOCC1 [Compound 6],< 1,< 10,,
Nc1cc(C(F)(F)F)c(-c2cc(N3CCCCC3=O)nc(N3CCOCC3)n2)cn1 [Compound 17],< 1,< 1,,
Nc1ccc(-c2cc(Nc3cccc4[nH]ncc34)nc(N3CCOCC3)n2)cn1 [Compound 347],,,< 1,< 10

# Further lines, results first:
IC50 [1] [µM],EC50 ([2]; ovarian cancer cell line A2780) [µM],IC50 ([1]; Biological Method 1) [µM],"EC50 [2, 3] [µM]",Compound
< 1,< 25,,,Nc1ncc(-c2cc(Nc3cnc4ccc(OC(F)(F)F)cc4c3)nc(N3CCOCC3)n2)cn1 [Compound 495]
< 1,< 10,,,Nc1cc(C(F)(F)F)c(-c2cc(Nc3nc(-c4ccccc4)cs3)nc(N3CCOCC3)n2)cn1 [Compound 554]
< 1,< 10,,,Nc1ncc(-c2cc(O[C@H]3CCOC3)nc(N3CCOCC3)n2)c(C(F)(F)F)n1 [Compound 530]
< 1,< 10,,,COc1ccc(Nc2cc(-c3cnc(N)nc3C)nc(N3CCOCC3)n2)cn1 [Compound 476]
< 10,< 25,,,Nc1ncc(-c2nc(N3CCOCC3)ncc2C(=O)N2CCNC(=O)C2)cn1 [Compound 427]
< 1,< 10,,,Cc1cc(Nc2cc(-c3cnc(N)[nH]c3=O)nc(N3CCOCC3)n2)ccn1 [Compound 451]
< 1,< 10,,,COC(=O)N1CC[C@@H](Oc2cc(-c3cnc(N)cc3C(F)(F)F)nc(N3CCOCC3)n2)C1 [Compound 539]
,,< 1,< 10,CC(=O)Nc1cccc(Nc2cc(-c3ccc(N)nc3)nc(N3CCOCC3)n2)c1 [Compound 363]
< 1,< 25,,,Nc1cc(C(F)(F)F)c(-c2cc(Nc3ccncc3)nc(N3CCOCC3)n2)cn1 [Compound 447]
< 1,< 10,,,Nc1ncc(-c2cc(Nc3ccc4[nH]ncc4c3)nc(N3CCOCC3)n2)cn1 [Compound 522]
< 1,< 10,,,CC(=O)N1CCC[C@@H](Oc2cc(-c3cnc(N)cc3C(F)(F)F)nc(N3CCOCC3)n2)C1 [Compound 453]
< 1,< 10,,,Nc1ncc(-c2cc(Nc3ccnc4ccc(C(F)(F)F)cc34)nc(N3CCOCC3)n2)cn1 [Compound 410]
< 1,< 10,,,Nc1ccc(-c2cc(Nc3ccccc3F)nc(N3CCOCC3)n2)cn1 [Compound 440]
,,< 1,< 10,Nc1ncc(-c2cc(N3CCNC(=O)C3)nc(N3CCOCC3)n2)cn1 [Compound 392]
,,< 1,< 10,NC(=O)c1ccccc1Nc1cc(-c2ccc(N)nc2)nc(N2CCOCC2)n1 [Compound 352]
< 1,< 10,,,Nc1ccc(-c2cc(Nc3cccc(F)c3)nc(N3CCOCC3)n2)cn1 [Compound 439]
,,< 1,< 10,Nc1ncc(-c2cc(Nc3cnccc3C(F)(F)F)nc(N3CCOCC3)n2)cn1 [Compound 390]
< 1,< 10,,,CN(C)c1cc(-c2cnc(N)nc2)nc(N2CCOCC2)n1 [Compound 400]
< 1,< 10,,,COC(=O)N1CCC[C@@H](Oc2cc(-c3cnc(N)cc3C(F)(F)F)nc(N3CCOCC3)n2)C1 [Compound 452]
,,< 1,< 10,Nc1ccc(-c2cc(N3CCOC(c4ccccc4)C3)nc(N3CCOCC3)n2)cn1 (centres unmarked) [Compound 371]
,,< 1,< 10,Nc1ccc(-c2cc(Nc3ccc4c(c3)OCC(=O)N4)nc(N3CCOCC3)n2)cn1 [Compound 384]
< 1,< 25,,,Nc1cc(C(F)(F)F)c(-c2cc(Nc3ccc4c(c3)OCCO4)nc(N3CCOCC3)n2)cn1 [Compound 446]
